Assay results from the supplement of paper PMC10307832.

How the values were obtained:
Assay in all cases: relative viability (nuclei count vs DMSO), 5 days (fraction); higher = more cells survive
NCI-H661 = test system: NCI-H661
Procedure, shortened: (§1)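 After 5 days of treatment, lung cancer cells in 1536-well plates were fixed and stained in a single step (final 0.05% Triton X-100, 1% formaldehyde, 1 ug/ml Hoechst) and their nuclei counted on 4× images. Treatment had been applied by pin tool the day after seeding as one drug alone or as a fixed anchor-drug dose with five library-drug doses (not always all listed) in √10 steps. Relative viability is the nuclei count of treated wells divided by that of vehicle wells, and values are medians of duplicate plates.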

CAL-12T = test system: CAL-12T
Procedure, shortened: as §1

NCI-H2023 = test system: NCI-H2023
Procedure, shortened: as §1

BEN = test system: BEN
Procedure, shortened: as §1

NCI-H1915 = test system: NCI-H1915
Procedure, shortened: as §1

NCI-H520 = test system: NCI-H520
Procedure, shortened: as §1

NCI-H2087 = test system: NCI-H2087
Procedure, shortened: as §1

NCI-H596 = test system: NCI-H596
Procedure, shortened: as §1

201T = test system: 201T
Procedure, shortened: as §1

NCI-H650 = test system: NCI-H650
Procedure, shortened: as §1

NCI-H460 = test system: NCI-H460
Procedure, shortened: as §1

NCI-H1650 = test system: NCI-H1650
Procedure, shortened: as §1

NCI-H441 = test system: NCI-H441
Procedure, shortened: as §1

A-427 = test system: A-427
Procedure, shortened: as §1

LCLC-97TM1 = test system: LCLC-97TM1
Procedure, shortened: as §1

NCI-H1944 = test system: NCI-H1944
Procedure, shortened: as §1

PC-3 [JPC-3] = test system: PC-3 [JPC-3]
Procedure, shortened: as §1

H3255 = test system: H3255
Procedure, shortened: as §1

NCI-H1651 = test system: NCI-H1651
Procedure, shortened: as §1

LC-2-ad = test system: LC-2-ad
Procedure, shortened: as §1

SMILES: Nc1ccn([C@@H]2O[C@H](CO)[C@@H](O)[C@@H]2O)c(=O)n1 [Cytarabine] + Nc1nc2[nH]cc(CCc3ccc(C(=O)N[C@@H](CCC(=O)O)C(=O)O)cc3)c2c(=O)[nH]1 [Pemetrexed] (partner 0.2 µM)
- relative viability (NCI-H661; first compound 0.005 µM): 0.94
- relative viability (NCI-H661; first compound 0.01581 µM): 0.849
- relative viability (NCI-H661; first compound 0.05 µM): 0.851
- relative viability (NCI-H661; first compound 0.1581 µM): 0.609
- relative viability (NCI-H661; first compound 0.5 µM): 0.373
- relative viability (CAL-12T; first compound 0.005 µM): 0.928
- relative viability (CAL-12T; first compound 0.01581 µM): 1.11
- relative viability (CAL-12T; first compound 0.05 µM): 0.984
- relative viability (CAL-12T; first compound 0.1581 µM): 0.543
- relative viability (CAL-12T; first compound 0.5 µM): 0.249
- relative viability (NCI-H2023; first compound 0.005 µM): 0.193
- relative viability (NCI-H2023; first compound 0.01581 µM): 0.126
- relative viability (NCI-H2023; first compound 0.05 µM): 0.105
- relative viability (NCI-H2023; first compound 0.1581 µM): 0.0804
- relative viability (NCI-H2023; first compound 0.5 µM): 0.0895
- relative viability (BEN; first compound 0.005 µM): 0.632
- relative viability (BEN; first compound 0.01581 µM): 0.512
- relative viability (BEN; first compound 0.05 µM): 0.383
- relative viability (BEN; first compound 0.1581 µM): 0.366
- relative viability (BEN; first compound 0.5 µM): 0.287
- relative viability (NCI-H1915; first compound 0.005 µM): 0.506
- relative viability (NCI-H1915; first compound 0.01581 µM): 0.563
- relative viability (NCI-H1915; first compound 0.05 µM): 0.54
- relative viability (NCI-H1915; first compound 0.1581 µM): 0.45
- relative viability (NCI-H1915; first compound 0.5 µM): 0.333
- relative viability (NCI-H520; first compound 0.005 µM): 0.605
- relative viability (NCI-H520; first compound 0.01581 µM): 0.65
- relative viability (NCI-H520; first compound 0.05 µM): 0.639
- relative viability (NCI-H520; first compound 0.1581 µM): 0.528
- relative viability (NCI-H520; first compound 0.5 µM): 0.398
- relative viability (NCI-H2087; first compound 0.005 µM): 0.631
- relative viability (NCI-H2087; first compound 0.01581 µM): 0.616
- relative viability (NCI-H2087; first compound 0.05 µM): 0.647
- relative viability (NCI-H2087; first compound 0.1581 µM): 0.57
- relative viability (NCI-H2087; first compound 0.5 µM): 0.283
- relative viability (NCI-H596; first compound 0.005 µM): 0.41
- relative viability (NCI-H596; first compound 0.01581 µM): 0.485
- relative viability (NCI-H596; first compound 0.05 µM): 0.472
- relative viability (NCI-H596; first compound 0.1581 µM): 0.379
- relative viability (NCI-H596; first compound 0.5 µM): 0.349
- relative viability (201T; first compound 0.005 µM): 0.361
- relative viability (201T; first compound 0.01581 µM): 0.353
- relative viability (201T; first compound 0.05 µM): 0.309
- relative viability (201T; first compound 0.1581 µM): 0.325
- relative viability (201T; first compound 0.5 µM): 0.25
- relative viability (NCI-H650; first compound 0.005 µM): 0.809
- relative viability (NCI-H650; first compound 0.01581 µM): 0.581
- relative viability (NCI-H650; first compound 0.05 µM): 0.283
- relative viability (NCI-H650; first compound 0.1581 µM): 0.171
- relative viability (NCI-H650; first compound 0.5 µM): 0.157
- relative viability (NCI-H460; first compound 0.005 µM): 0.0718
- relative viability (NCI-H460; first compound 0.01581 µM): 0.0671
- relative viability (NCI-H460; first compound 0.05 µM): 0.0853
- relative viability (NCI-H460; first compound 0.1581 µM): 0.0459
- relative viability (NCI-H460; first compound 0.5 µM): 0.037
- relative viability (NCI-H1650; first compound 0.005 µM): 0.367
- relative viability (NCI-H1650; first compound 0.01581 µM): 0.353
- relative viability (NCI-H1650; first compound 0.05 µM): 0.262
- relative viability (NCI-H1650; first compound 0.1581 µM): 0.199
- relative viability (NCI-H1650; first compound 0.5 µM): 0.158
- relative viability (NCI-H441; first compound 0.005 µM): 0.273
- relative viability (NCI-H441; first compound 0.01581 µM): 0.251
- relative viability (NCI-H441; first compound 0.05 µM): 0.331
- relative viability (NCI-H441; first compound 0.1581 µM): 0.226
- relative viability (NCI-H441; first compound 0.5 µM): 0.144
- relative viability (A-427; first compound 0.005 µM): 0.745
- relative viability (A-427; first compound 0.01581 µM): 0.509
- relative viability (A-427; first compound 0.05 µM): 0.332
- relative viability (A-427; first compound 0.1581 µM): 0.27
- relative viability (A-427; first compound 0.5 µM): 0.253
- relative viability (LCLC-97TM1; first compound 0.005 µM): 0.209
- relative viability (LCLC-97TM1; first compound 0.01581 µM): 0.179
- relative viability (LCLC-97TM1; first compound 0.05 µM): 0.0983
- relative viability (LCLC-97TM1; first compound 0.1581 µM): 0.108
- relative viability (LCLC-97TM1; first compound 0.5 µM): 0.0633
- relative viability (NCI-H1944; first compound 0.005 µM): 0.505
- relative viability (NCI-H1944; first compound 0.01581 µM): 0.312
- relative viability (NCI-H1944; first compound 0.05 µM): 0.241
- relative viability (NCI-H1944; first compound 0.1581 µM): 0.14
- relative viability (NCI-H1944; first compound 0.5 µM): 0.116
- relative viability (PC-3 [JPC-3]; first compound 0.005 µM): 1
- relative viability (PC-3 [JPC-3]; first compound 0.01581 µM): 0.914
- relative viability (PC-3 [JPC-3]; first compound 0.05 µM): 0.616
- relative viability (PC-3 [JPC-3]; first compound 0.1581 µM): 0.557
- relative viability (PC-3 [JPC-3]; first compound 0.5 µM): 0.716
- relative viability (H3255; first compound 0.005 µM): 0.625
- relative viability (H3255; first compound 0.01581 µM): 0.565
- relative viability (H3255; first compound 0.05 µM): 0.506
- relative viability (H3255; first compound 0.1581 µM): 0.526
- relative viability (H3255; first compound 0.5 µM): 0.432
- relative viability (NCI-H1651; first compound 0.005 µM): 0.479
- relative viability (NCI-H1651; first compound 0.01581 µM): 0.569
- relative viability (NCI-H1651; first compound 0.05 µM): 0.223
- relative viability (NCI-H1651; first compound 0.1581 µM): 0.451
- relative viability (NCI-H1651; first compound 0.5 µM): 0.221
- relative viability (LC-2-ad; first compound 0.005 µM): 0.28
- relative viability (LC-2-ad; first compound 0.01581 µM): 0.31
- relative viability (LC-2-ad; first compound 0.05 µM): 0.286
- relative viability (LC-2-ad; first compound 0.1581 µM): 0.268
- relative viability (LC-2-ad; first compound 0.5 µM): 0.265
